Target: T1, cyclooxygenase-1 (COX-1) (Homo sapiens, UniProt P23219)
T1 construct: gene PTGS1; human recombinant COX-1 stably overexpressed in HEK-293 cells
Assay: PGE2 production from added arachidonic acid in HEK-293 cells overexpressing human COX-1
Assay type: cell-based

T1 sequence (P23219 24-599): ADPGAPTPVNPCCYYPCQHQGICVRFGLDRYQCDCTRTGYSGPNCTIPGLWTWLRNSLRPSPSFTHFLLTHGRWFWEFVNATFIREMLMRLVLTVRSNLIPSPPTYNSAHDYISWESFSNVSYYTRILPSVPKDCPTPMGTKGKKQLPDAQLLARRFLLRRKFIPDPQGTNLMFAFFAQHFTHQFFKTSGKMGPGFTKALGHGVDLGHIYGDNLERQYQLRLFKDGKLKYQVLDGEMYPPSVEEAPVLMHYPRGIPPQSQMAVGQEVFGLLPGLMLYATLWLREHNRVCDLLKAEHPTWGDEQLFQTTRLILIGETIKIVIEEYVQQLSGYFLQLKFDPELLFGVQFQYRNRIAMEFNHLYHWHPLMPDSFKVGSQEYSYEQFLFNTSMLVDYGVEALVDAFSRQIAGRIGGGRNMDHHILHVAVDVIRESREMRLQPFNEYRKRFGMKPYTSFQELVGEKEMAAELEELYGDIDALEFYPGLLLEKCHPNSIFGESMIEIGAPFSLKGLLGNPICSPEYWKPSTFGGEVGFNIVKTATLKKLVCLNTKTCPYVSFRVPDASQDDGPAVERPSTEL

IC50: 5.2 µM
SMILES: Cc1cc(C(=O)O)c(C(F)(F)c2cccc(C(C)C)c2)cc1C [A5, 2-(difluoro(3-isopropylphenyl)methyl)-4,5-dimethylbenzoic acid]

— article PMC6824041, “gem-Difluorobisarylic derivatives: design, synthesis and anti-inflammatory effect” (BMC Chemistry, 2019)
